The test system of one assay is SARS-CoV-2. Kind of assay: Antiviral assay, virus-induced cytopathic effect. The assay is classed as cell-based, SARS-CoV-2 (hCoV-19/Egypt/NRC-03/2020). The following applies: CC50 VERO-E6 / IC50 SARS-CoV-2. In general terms: Cytopathic effects are the visible damage that an infection or toxin causes in cultured cells.
Assay [1] has as its system MCF7 cells. Kind of assay: Annexin V-FITC apoptosis/necrosis study. The class given is cell-based. The settings on record: MCF7, compound at its IC50; for Apoptosis (%) Late: control 0.13; for Apoptosis (%) Early: control 0.49; for Necrosis: control 0.87; for Apoptosis (%) Total: control 1.49.
Assay [2] concerns MCF7 cells. Kind of assay: Cell cycle analysis by PI-flow cytometry. The class given is cell-based. The settings on record: MCF7, compound at its IC50; for DNA content (%) S: control 41.12; for DNA content (%) Pre-G1: control 1.49; for DNA content (%) G2/M: control 5.09; for DNA content (%) G0-G1: control 53.79. (In general: In flow cytometry, cells or beads pass a laser one at a time.)

For assay [3], the system named is PaCa-2 (pancreatic) cancer cell line. The assay is described as follows: MTT antiproliferative assay, PaCa-2. The settings on record: for IC50: PaCa-2, 72 h, read-out: IC50 (μM) ± SE PaCa-2; for Potency against PaCa2 relative to Sunitinib: ratio of IC50 values. The assay is classed as cell-based. (Tetrazolium assays rely on reduction of a dye to a coloured formazan, in cell work by metabolically active cells.)

Assay [4] has as its system MCF7 (breast) cancer cell line. Kind of assay: MTT antiproliferative assay, MCF7. The following applies: for IC50: Homo sapiens, MCF7, 72 h, read-out: IC50 (μM) ± SE MCF7. The class given is cell-based.
Assay [5] has as its system chick embryo chorioallantoic membrane (CAM) blood vessels. The assay is described as follows: CAM assay. The assay is classed as in vivo, chicken. The settings on record: 20 μl of 660 μM, 3 days of treatment, n = 4, vehicle control 14.00 ± 3.00.
Another assay has as its target c-kit (Homo sapiens, UniProt P10721). The assay is described as follows: c-Kit ADP-Glo kinase assay. The assay is classed as biochemical.
The test system of assay [6] is HCT116 (colon) cancer cell line. Kind of assay: MTT antiproliferative assay, HCT116. The class given is cell-based. The following applies: Homo sapiens, HCT-116, 72 h, read-out: IC50 (μM) ± SE HCT116.
Another assay addresses VEGFR-2 (Homo sapiens, UniProt P35968). The assay is described as follows: VEGFR-2. The class given is biochemical. The following applies: for VEGFR-2 inhibitory potency relative to Sunitinib: ratio of IC50 values.

Values joined by “and” are separate entries in the source; they are usually repeats but may differ in a detail not shown here. Equal values may be shown once. Where only a bound is given, the exact number is not on record here.

By IC50 is commonly meant the concentration at which inhibition is half-maximal.

Chain of c-kit (P10721 26-976): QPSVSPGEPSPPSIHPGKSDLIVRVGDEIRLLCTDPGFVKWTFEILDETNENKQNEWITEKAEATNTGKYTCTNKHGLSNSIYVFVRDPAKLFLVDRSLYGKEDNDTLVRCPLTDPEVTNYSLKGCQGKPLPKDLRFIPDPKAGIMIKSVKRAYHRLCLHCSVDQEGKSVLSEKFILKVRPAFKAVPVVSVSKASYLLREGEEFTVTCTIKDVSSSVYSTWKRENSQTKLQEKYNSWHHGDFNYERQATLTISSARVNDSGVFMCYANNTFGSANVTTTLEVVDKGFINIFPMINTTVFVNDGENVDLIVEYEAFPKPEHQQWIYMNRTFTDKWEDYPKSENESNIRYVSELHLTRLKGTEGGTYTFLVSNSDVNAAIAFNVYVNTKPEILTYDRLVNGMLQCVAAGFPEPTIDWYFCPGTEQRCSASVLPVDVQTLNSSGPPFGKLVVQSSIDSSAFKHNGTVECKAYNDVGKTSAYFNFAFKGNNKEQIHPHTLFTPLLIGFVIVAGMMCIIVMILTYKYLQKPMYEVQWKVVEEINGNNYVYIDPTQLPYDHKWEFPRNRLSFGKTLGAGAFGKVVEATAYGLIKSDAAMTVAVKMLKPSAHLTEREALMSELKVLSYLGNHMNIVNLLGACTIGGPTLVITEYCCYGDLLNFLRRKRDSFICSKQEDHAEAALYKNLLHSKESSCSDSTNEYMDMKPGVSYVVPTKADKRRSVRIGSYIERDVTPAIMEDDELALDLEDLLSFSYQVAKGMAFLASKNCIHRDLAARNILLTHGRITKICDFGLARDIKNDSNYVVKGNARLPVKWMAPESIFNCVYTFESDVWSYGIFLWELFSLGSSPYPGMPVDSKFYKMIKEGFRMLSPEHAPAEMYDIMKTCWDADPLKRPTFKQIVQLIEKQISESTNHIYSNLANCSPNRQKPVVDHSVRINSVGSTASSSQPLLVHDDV
Chain of VEGFR-2 (P35968 20-1356): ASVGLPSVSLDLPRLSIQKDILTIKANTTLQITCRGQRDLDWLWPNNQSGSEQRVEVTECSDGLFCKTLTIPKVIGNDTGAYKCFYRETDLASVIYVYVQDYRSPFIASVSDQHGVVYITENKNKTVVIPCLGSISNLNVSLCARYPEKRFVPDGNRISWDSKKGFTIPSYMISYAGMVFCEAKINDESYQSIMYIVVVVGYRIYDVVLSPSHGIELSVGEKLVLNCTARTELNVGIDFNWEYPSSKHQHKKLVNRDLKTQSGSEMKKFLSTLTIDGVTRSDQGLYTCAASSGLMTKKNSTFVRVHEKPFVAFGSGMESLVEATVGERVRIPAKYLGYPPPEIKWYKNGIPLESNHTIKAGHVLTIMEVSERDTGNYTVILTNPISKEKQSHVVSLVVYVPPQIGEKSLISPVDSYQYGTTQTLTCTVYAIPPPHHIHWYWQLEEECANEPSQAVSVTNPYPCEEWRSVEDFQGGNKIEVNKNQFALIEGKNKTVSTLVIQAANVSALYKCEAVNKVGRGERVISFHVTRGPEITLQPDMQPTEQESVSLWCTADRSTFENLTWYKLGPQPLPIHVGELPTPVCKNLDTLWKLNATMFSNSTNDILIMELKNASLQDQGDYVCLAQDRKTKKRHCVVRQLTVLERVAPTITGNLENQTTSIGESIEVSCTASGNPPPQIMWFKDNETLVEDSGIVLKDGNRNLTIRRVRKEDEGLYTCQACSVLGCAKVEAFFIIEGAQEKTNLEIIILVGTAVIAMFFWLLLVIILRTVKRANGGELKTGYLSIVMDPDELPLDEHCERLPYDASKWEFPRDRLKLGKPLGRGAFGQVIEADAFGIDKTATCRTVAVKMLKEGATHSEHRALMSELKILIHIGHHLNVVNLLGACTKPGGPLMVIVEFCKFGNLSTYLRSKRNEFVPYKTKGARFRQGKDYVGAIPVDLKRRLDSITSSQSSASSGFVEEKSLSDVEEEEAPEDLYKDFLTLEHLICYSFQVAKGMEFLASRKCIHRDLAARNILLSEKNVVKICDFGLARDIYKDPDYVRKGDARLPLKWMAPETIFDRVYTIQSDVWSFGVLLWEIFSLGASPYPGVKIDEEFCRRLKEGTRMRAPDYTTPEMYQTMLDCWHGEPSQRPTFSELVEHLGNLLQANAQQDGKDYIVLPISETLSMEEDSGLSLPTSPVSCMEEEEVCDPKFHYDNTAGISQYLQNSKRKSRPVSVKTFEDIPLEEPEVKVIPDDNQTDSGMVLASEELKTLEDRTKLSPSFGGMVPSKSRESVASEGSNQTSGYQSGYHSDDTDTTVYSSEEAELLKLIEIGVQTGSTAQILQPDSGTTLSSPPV

`NC(=O)c1nc(F)c[nH]c1=O` [Favipiravir, reference compound]: the “SI (Selectivity index/therapeutical index) = CC50/IC50” value with SARS-CoV-2 is reported as 1.9.

With `CCS(=O)(=O)N(c1ccc(C(=O)/C=C2/C(=O)Nc3ccccc32)cc1)S(=O)(=O)CC` [Compound 10b, (E)-N-(Ethylsulfonyl)-N-{4-[2-(2-oxoindolin-3-ylidene)acetyl]phenyl}ethanesulfonamide], the “SI (Selectivity index/therapeutical index) = CC50/IC50” value with SARS-CoV-2 was found to be 165.6. Further, in the assay with MCF7 cells [1], the “Apoptosis (%) Late” value was found to be 17.15%, the “Apoptosis (%) Early” value came to 4.03%, the Necrosis turned out to be 7.07% and the “Apoptosis (%) Total” value was found to be 28.25%. In the assay on MCF7 cells [2], the “Cell cycle phase arrested” value is on record as “arrest the tested cell at S phase”, the “Increment in S phase relative to control” value is given as “about 13%” and the “DNA content (%) S” value turned out to be 54.18%. Besides, in assay [3], the IC50 is 5.08 ± 0.57 µM and the “Potency against PaCa2 relative to Sunitinib” value was around 3.3 folds. Moreover, the IC50 in [4] was 4.15 ± 0.78 µM. Besides, the “Mean diameter of blood vessels (mm ± SD)” value in assay [5] amounted to 2.70 ± 0.40 mm. The compound also gave an IC50 on c-kit of 0.185 ± 0.0185 µM. In assay [6], the IC50 came to 13.8 ± 1.06 µM. 0.0741 ± 0.0074 µM corresponded to half-maximal inhibition against VEGFR-2 (IC50).

As to `CCN(CCO)CCCC(C)Nc1ccnc2cc(Cl)ccc12` (stereo not drawn) [Hydroxychloroquine, reference compound], the “SI (Selectivity index/therapeutical index) = CC50/IC50” value in the assay on SARS-CoV-2 was 12.2.

Take `CCN(CC)CCCC(C)Nc1ccnc2cc(Cl)ccc12` (stereo not drawn) [Chloroquine, reference compound]: in the assay on SARS-CoV-2, the “SI (Selectivity index/therapeutical index) = CC50/IC50” value came to 19.1.

Consider `CS(=O)(=O)Oc1ccc(C(=O)/C=C2/C(=O)Nc3ccccc32)cc1` [Compound 6a, (E)-4-[2-(2-Oxoindolin-3-ylidene)acetyl]phenyl methanesulfonate], for which the “SI (Selectivity index/therapeutical index) = CC50/IC50” value in the assay on SARS-CoV-2 is reported as 362.5. Further, in the assay on MCF7 cells [2], the “DNA content (%) Pre-G1” value stood at 34.71%. In addition, in the assay with MCF7 cells [2], the “DNA content (%) G2/M” value turned out to be 2.67%. For the same compound, the “DNA content (%) S” value in the assay with MCF7 cells [2] stood at 43.25%. The “DNA content (%) G0-G1” value in the assay on MCF7 cells [2] is on record as 54.08%. Further, the IC50 in assay [3] was determined as 8.3 ± 0.44 µM; in assay [4], 6.85 ± 0.37 µM; on c-kit it was 0.12 ± 0.012 µM; in assay [6] it was 16.4 ± 0.7 µM; at VEGFR-2, 0.054 ± 0.0054 µM. Further, in assay [5], the “Mean diameter of blood vessels (mm ± SD)” value amounted to 3.20 ± 1.00 mm.

`CCS(=O)(=O)N(c1ccc(C(=O)/C=C2/C(=O)Nc3ccc(Cl)cc32)cc1)S(=O)(=O)CC` [Compound 10c, (E)-N-{4-[2-(5-Chloro-2-oxoindolin-3-ylidene)acetyl]phenyl}-N-(ethylsulfonyl)ethanesulfonamide]: the “SI (Selectivity index/therapeutical index) = CC50/IC50” value in the assay with SARS-CoV-2 stood at 75.5. For the same compound, the IC50 in [3] was 6.18 ± 0.32 µM; in [4] it was 4.43 ± 0.47 µM; against c-kit, 0.0817 ± 0.0082 µM; in [6], above 50 µM; against VEGFR-2, 0.0534 ± 0.0053 µM. The “Potency against MCF7 relative to Sunitinib” value in assay [4] (ratio of IC50 values) is given as 0.9 fold. Moreover, the “Mean diameter of blood vessels (mm ± SD)” value in assay [5] was 5.0 mm and 5.00 ± 0.40 mm. The “VEGFR-2 inhibitory potency relative to Sunitinib” value at VEGFR-2 turned out to be 0.89 fold.

On to `CS(=O)(=O)N(c1ccc(C(=O)/C=C2/C(=O)Nc3ccccc32)cc1)S(C)(=O)=O` [Compound 10a, (E)-N-(Methylsulfonyl)-N-{4-[2-(2-oxoindolin-3-ylidene)acetyl]phenyl}methanesulfonamide], for which the “SI (Selectivity index/therapeutical index) = CC50/IC50” value in the assay with SARS-CoV-2 was 7.4. In addition, the “DNA content (%) Pre-G1” value with MCF7 cells [2] is 28.25%. The “DNA content (%) G2/M” value in the assay on MCF7 cells [2] amounted to 4.11%. For the same compound, in the assay on MCF7 cells [2], the “DNA content (%) S” value turned out to be 54.18%. In addition, the “DNA content (%) G0-G1” value in the assay on MCF7 cells [2] is 41.71%. For the same compound, the IC50 was determined as 6.91 ± 0.89 µM in assay [3]; 6.07 ± 0.83 µM in assay [4]; 0.103 ± 0.0103 µM against c-kit; 21 ± 1.75 µM in assay [6]; 0.102 ± 0.0102 µM on VEGFR-2. The “Mean diameter of blood vessels (mm ± SD)” value in assay [5] is listed as 3.50 ± 0.50 mm.

As for `CCN(CC)CCNC(=O)c1c(C)[nH]c(/C=C2\C(=O)Nc3ccc(F)cc32)c1C` [Sunitinib, reference compound], the IC50 in assay [3] worked out at 16.9 ± 0.95 µM; in [6], 5.03 ± 0.3 µM. Further, the “Mean diameter of blood vessels (mm ± SD)” value in assay [5] was 5 mm and 5.0 mm and 5.00 ± 0.71 mm.

As to `CCS(=O)(=O)Oc1ccc(C(=O)/C=C2/C(=O)Nc3ccc(Cl)cc32)cc1` [Compound 6c, (E)-4-[2-(5-Chloro-2-oxoindolin-3-ylidene)acetyl]phenyl ethanesulfonate], the “SI (Selectivity index/therapeutical index) = CC50/IC50” value with SARS-CoV-2 worked out at 26.4. The IC50 in [3] turned out to be 4.99 ± 0.29 µM; in assay [4], 4.28 ± 0.51 µM; at c-kit, 0.0723 ± 0.0072 µM; in [6], 5.33 ± 0.46 µM; against VEGFR-2, 0.0369 ± 0.0037 µM. Also, in assay [3], the “Potency against PaCa2 relative to Sunitinib” value is given as “about 3.4 folds”. The “Mean diameter of blood vessels (mm ± SD)” value in assay [5] was 5.1 mm and 5.13 ± 0.90 mm. Besides, at VEGFR-2, the “VEGFR-2 inhibitory potency relative to Sunitinib” value came to 1.3 fold.

On to `CCS(=O)(=O)Oc1ccc(C(=O)/C=C2/C(=O)Nc3ccccc32)cc1` [Compound 6b, (E)-4-[2-(2-Oxoindolin-3-ylidene)acetyl]phenyl ethanesulfonate], for which the “SI (Selectivity index/therapeutical index) = CC50/IC50” value in the assay with SARS-CoV-2 is listed as 23.8. For the same compound, in the assay on MCF7 cells [1], the “Apoptosis (%) Late” value is reported as 22.91%, the “Apoptosis (%) Early” value is reported as 2.51%, the Necrosis was 9.29% and the “Apoptosis (%) Total” value was determined as 34.71%. Moreover, in the assay with MCF7 cells [2], the “Cell cycle phase arrested” value is listed as “arrests the cell cycle at G1/S phase”, the “Decrease in cell population at G2/M relative to control” value was found to be 47.5%, the “DNA content (%) G2/M” value was found to be 2.67% and the “DNA content (%) S” value is 43.25%. Further, the “DNA content (%) G0-G1” value with MCF7 cells [2] is 54.08%. For the same compound, in [3], the IC50 was determined as 5.6 ± 0.57 µM and the “Potency against PaCa2 relative to Sunitinib” value is “three time folds”. The 50% inhibitory concentration (IC50) in assay [4] came to 4.25 ± 0.23 µM. The “Mean diameter of blood vessels (mm ± SD)” value in assay [5] worked out at 5.10 ± 1.00 mm. Besides, the IC50 against c-kit was determined as 0.248 ± 0.0248 µM. Besides, the IC50 in assay [6] is 12.8 ± 1.41 µM. This compound also gave an IC50 against VEGFR-2 of 0.0989 ± 0.0099 µM.

The record behind these values is article PMC8241580 (Bioorganic Chemistry, 2021).
